Laboratory results taken from the supplement of paper PMC4862054.

Tests used:
Settings in all cases: incubation time: 72 h
[1] = tested on: HCC1143; assay: drug sensitivity score (DSS), CellTox Green (DSS (AUC-based score)); higher = stronger drug effect (viability inhibition or cytotoxicity); extreme values may be limits of the assay
How it was run: (§1)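 A drug sensitivity score was derived from the area under each fitted dose-response curve. Breast cancer cells (20 µl suspension) were seeded onto compound in 384-well plates, using 5 concentrations 10-fold apart over a compound-specific 10,000-fold range, and incubated 72 h. Readouts were CellTox Green fluorescence and then CellTiter-Glo luminescence, with every plate normalised to 0.1 % DMSO and a positive kill control.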

[2] = tested on: MDA-MB-468; assay: as above
How it was run: as §1

[3] = tested on: HDQ-P1; assay: as above
How it was run: as §1

[4] = tested on: BT-549; assay: as above
How it was run: as §1

[5] = tested on: CAL-51; assay: as above
How it was run: as §1

[6] = tested on: MCF-10A; assay: as above
How it was run: as §1

[7] = tested on: HCC1599; assay: as above
How it was run: as §1

[8] = tested on: MDA-MB-436; assay: as above
How it was run: as §1

[9] = tested on: MFM-223; assay: as above
How it was run: as §1

[10] = tested on: BT-474; assay: as above
How it was run: as §1

[11] = tested on: CAL-148; assay: as above
How it was run: as §1

[12] = tested on: CAL-85-1; assay: as above
How it was run: as §1

[13] = tested on: DU-4475; assay: as above
How it was run: as §1

[14] = tested on: CAL-120; assay: as above
How it was run: as §1

[15] = tested on: MDA-MB-453; assay: as above
How it was run: as §1

[16] = tested on: HCC1143; assay: normalised response (% of control), CellTox Green; higher = less cell death (100 = DMSO, 0 = benzethonium chloride kill control)
How it was run: (§2)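 In 384-well plates holding compound at 5 concentrations in 10-fold steps over a 10,000-fold range specific to each compound, breast cancer cell lines were seeded as 20 µl suspension and incubated 72 h. CellTox Green fluorescence was measured at 485/520 nm, after which CellTiter-Glo luminescence was measured following 10 min at room temperature. Plate signals were normalised to 0.1 % DMSO (100) and a positive kill control (0), and each value is the normalised signal at a single concentration.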

[17] = tested on: MDA-MB-468; assay: as above
How it was run: as §2

[18] = tested on: BT-549; assay: as above
How it was run: as §2

[19] = tested on: CAL-51; assay: as above
How it was run: as §2

[20] = tested on: HCC1599; assay: as above
How it was run: as §2

[21] = tested on: MDA-MB-436; assay: as above
How it was run: as §2

[22] = tested on: MFM-223; assay: as above
How it was run: as §2

[23] = tested on: BT-474; assay: as above
How it was run: as §2

[24] = tested on: CAL-85-1; assay: as above
How it was run: as §2

[25] = tested on: DU-4475; assay: as above
How it was run: as §2

[26] = tested on: Hs578T; assay: as above
How it was run: as §2

[27] = tested on: MDA-MB-453; assay: as above
How it was run: as §2

[28] = tested on: MDA-MB-231; assay: as above
How it was run: as §2

Row | SMILES | drug sensitivity score [1] | drug sensitivity score [2] | drug sensitivity score [3] | drug sensitivity score [4] | drug sensitivity score [5] | drug sensitivity score [6] | drug sensitivity score [7] | drug sensitivity score [8] | drug sensitivity score [9] | drug sensitivity score [10] | drug sensitivity score [11] | drug sensitivity score [12] | drug sensitivity score [13] | drug sensitivity score [14] | drug sensitivity score [15] | normalised response [16] | normalised response [17] | normalised response [18] | normalised response [19] | normalised response [20] | normalised response [21] | normalised response [22] | normalised response [23] | normalised response [24] | normalised response [25] | normalised response [26] | normalised response [27] | normalised response [28]
1 | Cc1ccc(F)c(NC(=O)Nc2ccc(-c3cccc4[nH]nc(N)c34)cc2)c1 [Linifanib] | 0 | 0 | 0 | 0 | 0 | 0 | 0 | 0 | 0 | 0 | 0 | 0 | 0 | 0 | 0 | – | – | – | – | – | – | – | – | – | – | – | – | –
2 | C=CCNC1=C2C[C@@H](C)C[C@H](OC)[C@H](O)[C@@H](C)/C=C(\C)[C@H](OC(N)=O)[C@@H](OC)/C=C\C=C(/C)C(=O)NC(=CC1=O)C2=O [Tanespimycin] (1000 nM) | – | – | – | – | – | – | – | – | – | – | – | – | – | – | – | 91.2% | 121% | 99.8% | 48.8% | 95.6% | 24.3% | 98.9% | 76.9% | 68.2% | 62.4% | 98.9% | 93.3% | 36.8%
3 | C=CCNC1=C2C[C@@H](C)C[C@H](OC)[C@H](O)[C@@H](C)/C=C(\C)[C@H](OC(N)=O)[C@@H](OC)/C=C\C=C(/C)C(=O)NC(=CC1=O)C2=O [Tanespimycin] (10000 nM) | – | – | – | – | – | – | – | – | – | – | – | – | – | – | – | 52.5% | 100% | 109% | 58.7% | 108% | 99.4% | 86% | 62.6% | 75.6% | 69% | 61.2% | 87.4% | 15.4%
4 | CO[C@H]1C[C@@H]2CC[C@@H](C)[C@@](O)(O2)C(=O)C(=O)N2CCCC[C@H]2C(=O)O[C@H]([C@H](C)C[C@@H]2CC[C@@H](OC(=O)C(C)(CO)CO)[C@H](OC)C2)CC(=O)[C@H](C)/C=C(\C)[C@@H](O)[C@@H](OC)C(=O)[C@H](C)C[C@H](C)/C=C/C=C/C=C/1C [Temsirolimus] (100 nM) | – | – | – | – | – | – | – | – | – | – | – | – | – | – | – | 130% | 149% | 130% | 103% | 106% | 97.1% | 90.9% | 91.2% | 80% | 98.8% | -18.9% | 107% | 123%
5 | C[C@]1(c2nc3c(C(N)=O)cccc3[nH]2)CCCN1 [Veliparib] (1000 nM) | – | – | – | – | – | – | – | – | – | – | – | – | – | – | – | 64.8% | 139% | 129% | 100% | 105% | 91.3% | 98.1% | 103% | 90% | 99% | 91.6% | 106% | 116%
6 | C[C@]1(c2nc3c(C(N)=O)cccc3[nH]2)CCCN1 [Veliparib] (10000 nM) | – | – | – | – | – | – | – | – | – | – | – | – | – | – | – | 110% | 125% | 106% | 86.6% | 117% | 112% | 92.3% | 96.5% | 87.9% | 103% | 109% | 95.4% | 88.2%
7 | CC[C@]1(O)C[C@@H]2CN(CCc3c([nH]c4ccccc34)[C@@](C(=O)OC)(c3cc4c(cc3OC)N(C)[C@H]3[C@@](O)(C(=O)OC)[C@H](OC(C)=O)[C@]5(CC)C=CCN6CC[C@]43[C@@H]65)C2)C1 [Vinblastine] (100 nM) | – | – | – | – | – | – | – | – | – | – | – | – | – | – | – | 56.7% | 19.1% | 66.2% | 32.1% | 78.4% | 88.4% | 54.7% | 67.5% | 61.1% | 93.8% | -12.8% | 103% | 28.5%
8 | CC[C@]1(O)C[C@@H]2CN(CCc3c([nH]c4ccccc34)[C@@](C(=O)OC)(c3cc4c(cc3OC)N(C)[C@H]3[C@@](O)(C(=O)OC)[C@H](OC(C)=O)[C@]5(CC)C=CCN6CC[C@]43[C@@H]65)C2)C1 [Vinblastine] (1000 nM) | – | – | – | – | – | – | – | – | – | – | – | – | – | – | – | 34.2% | 70.2% | 61.4% | 20.7% | 75.5% | 83.1% | 51.2% | 75.3% | 85.4% | 95.5% | -39.7% | 96.5% | 19.5%
9 | CS(=O)(=O)c1ccc(C(=O)Nc2ccc(Cl)c(-c3ccccn3)c2)c(Cl)c1 [Vismodegib] (10000 nM) | – | – | – | – | – | – | – | – | – | – | – | – | – | – | – | 76.7% | 226% | 119% | 102% | 98.8% | 85.5% | 98% | 102% | 138% | 100% | 82.8% | 80.9% | 94.1%
